In patent publication US10392368B2, “Pyrazolo and triazolo bicyclic compounds as JAK kinase inhibitors” (THERAVANCE BIOPHARMA R&D IP, LLC, priority 2017, dated 2019):
Read-outs that look alike come from different tables or passages of the source.

What was measured:
[1] = biological target: T1, Tyk2 (Homo sapiens, UniProt P29597); test: Biochemical Tyk2 kinase assay (LanthaScreen); settings: for Ki: read-out: Tyk 2 (pKi) (converted)
T1 construct: GST; purchased Life Technologies
How it was run: (§1)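 Compounds were preincubated with the GST-tagged kinase and GFP-labelled STAT1 peptide for one hour before ATP initiated a one-hour reaction at ambient temperature. Phosphorylation was quantified by TR-FRET with a Tb-labelled pTyr701 antibody. Ki values were derived from IC50 using Cheng-Prusoff.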

[2] = biological target: T2, JAK1 (Homo sapiens, UniProt P23458); test: Biochemical JAK1 kinase assay (LanthaScreen); settings: for Ki: read-out: JAK 1 (pKi) (converted)
T2 construct: GST; purchased Life Technologies
How it was run: as §1

[3] = biological target: T3, JAK3 (Homo sapiens, UniProt P52333); test: Biochemical JAK3 kinase assay (LanthaScreen); design: GST; purchased Life Technologies; settings: for Ki: read-out: JAK 3 (pKi) (converted)
T3 sequence (P52333 1-1124): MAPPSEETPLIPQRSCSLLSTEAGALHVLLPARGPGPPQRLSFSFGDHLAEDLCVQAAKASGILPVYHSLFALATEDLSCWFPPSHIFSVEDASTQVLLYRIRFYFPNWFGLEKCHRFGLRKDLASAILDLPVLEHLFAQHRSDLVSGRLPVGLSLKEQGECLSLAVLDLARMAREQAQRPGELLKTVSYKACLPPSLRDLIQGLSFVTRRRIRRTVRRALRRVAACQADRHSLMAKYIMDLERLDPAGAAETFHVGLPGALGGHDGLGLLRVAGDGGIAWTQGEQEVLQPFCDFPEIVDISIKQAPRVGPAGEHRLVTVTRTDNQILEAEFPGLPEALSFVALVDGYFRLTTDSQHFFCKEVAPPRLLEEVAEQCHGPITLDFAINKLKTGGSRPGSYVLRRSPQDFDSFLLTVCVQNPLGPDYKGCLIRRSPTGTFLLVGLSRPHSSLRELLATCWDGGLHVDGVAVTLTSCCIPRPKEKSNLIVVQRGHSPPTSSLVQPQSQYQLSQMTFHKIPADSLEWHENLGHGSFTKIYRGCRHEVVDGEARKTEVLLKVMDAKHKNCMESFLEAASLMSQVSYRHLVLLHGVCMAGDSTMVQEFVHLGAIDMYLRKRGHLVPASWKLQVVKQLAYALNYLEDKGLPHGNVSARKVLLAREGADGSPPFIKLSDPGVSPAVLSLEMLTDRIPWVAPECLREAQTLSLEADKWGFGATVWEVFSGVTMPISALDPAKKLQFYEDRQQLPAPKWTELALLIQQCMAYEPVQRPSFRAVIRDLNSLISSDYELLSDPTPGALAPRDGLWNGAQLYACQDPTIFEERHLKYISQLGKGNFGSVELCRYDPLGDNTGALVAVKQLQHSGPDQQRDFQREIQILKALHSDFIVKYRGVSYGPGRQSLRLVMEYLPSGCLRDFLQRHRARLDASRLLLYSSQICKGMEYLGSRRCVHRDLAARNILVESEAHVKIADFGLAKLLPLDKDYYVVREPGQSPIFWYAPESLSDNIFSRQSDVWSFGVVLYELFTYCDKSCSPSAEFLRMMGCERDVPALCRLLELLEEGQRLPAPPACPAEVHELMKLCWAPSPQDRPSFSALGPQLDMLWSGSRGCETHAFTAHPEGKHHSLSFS
How it was run: as §1

[4] = tested on: IL-2 stimulated pSTAT5 in Tall-1 T cells; test: Cellular JAK3 potency assay: inhibition of IL-2 stimulated pSTAT5 in Tall-1 T cells; format: cell-based, human; settings: for IC50: Homo sapiens, read-out: Tall-1 (pIC50) (converted)
How it was run: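 Tall-1 human T cells were preincubated with compound for 1 h at 37° C, then stimulated with IL-2 (300 ng/ml final) for 30 min. STAT5 phosphorylation in lysates was read by AlphaLisa bead emission, and IC50 from inhibition curves is given as pIC50 (mean±SD).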

[5] = biological target: T4, JAK2 (Homo sapiens, UniProt O60674); test: Biochemical JAK2 kinase assay (LanthaScreen); settings: for Ki: read-out: JAK 2 (pKi) (converted)
T4 construct: GST; purchased Life Technologies
How it was run: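 pKi values derive from pIC50 via Cheng-Prusoff, with IC50 from a 4-parameter fit of percent-inhibition TR-FRET data using Tb-anti-pSTAT1 (pTyr701) detection. Compound, GST-JAK2 and GFP-STAT1 substrate were pre-incubated 1 h, then ATP started a 1 h ambient reaction (HEPES pH 7.5, 10 mM MgCl2, 1% DMSO).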

[6] = selectivity JAK3 over JAK1, difference of pKi
[7] = IL-2 stimulated pSTAT5, Tall-1 T cells
[8] = TALL-1, IL-2 stimulated pSTAT5, Tall-1 T cells
[9] = selectivity: difference of pKi JAK3 and pKi JAK1
[10] = TALL-1, IL-2 stimulated pSTAT5 in Tall-1 T cells
[11] = IL-2 stimulated pSTAT5 in Tall-1 T cells

T1 sequence (P29597 whole entry): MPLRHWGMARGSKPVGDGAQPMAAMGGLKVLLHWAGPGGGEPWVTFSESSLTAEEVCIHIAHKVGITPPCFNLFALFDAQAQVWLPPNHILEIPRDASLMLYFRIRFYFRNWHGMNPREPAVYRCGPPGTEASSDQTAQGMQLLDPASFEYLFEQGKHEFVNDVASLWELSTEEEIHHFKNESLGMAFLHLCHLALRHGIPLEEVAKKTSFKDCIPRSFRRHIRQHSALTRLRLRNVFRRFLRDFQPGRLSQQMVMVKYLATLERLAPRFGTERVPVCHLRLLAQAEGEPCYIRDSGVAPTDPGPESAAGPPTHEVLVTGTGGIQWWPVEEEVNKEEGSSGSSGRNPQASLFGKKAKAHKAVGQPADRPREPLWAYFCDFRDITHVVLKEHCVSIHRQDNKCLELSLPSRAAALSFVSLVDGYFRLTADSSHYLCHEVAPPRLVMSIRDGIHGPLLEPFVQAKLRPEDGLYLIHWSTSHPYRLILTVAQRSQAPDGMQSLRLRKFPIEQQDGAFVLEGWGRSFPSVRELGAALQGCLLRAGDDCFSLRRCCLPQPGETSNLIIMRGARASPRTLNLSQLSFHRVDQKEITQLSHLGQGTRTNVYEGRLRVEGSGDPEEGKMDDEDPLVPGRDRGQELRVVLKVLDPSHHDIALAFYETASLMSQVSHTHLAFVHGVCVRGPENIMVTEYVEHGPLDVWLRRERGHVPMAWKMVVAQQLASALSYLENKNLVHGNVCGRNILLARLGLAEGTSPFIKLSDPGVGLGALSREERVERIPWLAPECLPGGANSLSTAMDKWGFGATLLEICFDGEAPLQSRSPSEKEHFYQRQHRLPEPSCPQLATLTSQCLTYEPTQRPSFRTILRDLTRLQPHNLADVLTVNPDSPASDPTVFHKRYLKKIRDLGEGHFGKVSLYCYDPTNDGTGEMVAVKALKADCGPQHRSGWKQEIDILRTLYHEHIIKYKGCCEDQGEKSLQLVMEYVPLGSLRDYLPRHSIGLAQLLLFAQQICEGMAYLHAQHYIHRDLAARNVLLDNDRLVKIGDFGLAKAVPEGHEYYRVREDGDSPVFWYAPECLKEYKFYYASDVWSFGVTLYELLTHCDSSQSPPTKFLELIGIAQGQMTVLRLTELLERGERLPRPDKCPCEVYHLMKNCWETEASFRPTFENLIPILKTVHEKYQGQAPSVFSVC
T4 sequence (O60674 whole entry): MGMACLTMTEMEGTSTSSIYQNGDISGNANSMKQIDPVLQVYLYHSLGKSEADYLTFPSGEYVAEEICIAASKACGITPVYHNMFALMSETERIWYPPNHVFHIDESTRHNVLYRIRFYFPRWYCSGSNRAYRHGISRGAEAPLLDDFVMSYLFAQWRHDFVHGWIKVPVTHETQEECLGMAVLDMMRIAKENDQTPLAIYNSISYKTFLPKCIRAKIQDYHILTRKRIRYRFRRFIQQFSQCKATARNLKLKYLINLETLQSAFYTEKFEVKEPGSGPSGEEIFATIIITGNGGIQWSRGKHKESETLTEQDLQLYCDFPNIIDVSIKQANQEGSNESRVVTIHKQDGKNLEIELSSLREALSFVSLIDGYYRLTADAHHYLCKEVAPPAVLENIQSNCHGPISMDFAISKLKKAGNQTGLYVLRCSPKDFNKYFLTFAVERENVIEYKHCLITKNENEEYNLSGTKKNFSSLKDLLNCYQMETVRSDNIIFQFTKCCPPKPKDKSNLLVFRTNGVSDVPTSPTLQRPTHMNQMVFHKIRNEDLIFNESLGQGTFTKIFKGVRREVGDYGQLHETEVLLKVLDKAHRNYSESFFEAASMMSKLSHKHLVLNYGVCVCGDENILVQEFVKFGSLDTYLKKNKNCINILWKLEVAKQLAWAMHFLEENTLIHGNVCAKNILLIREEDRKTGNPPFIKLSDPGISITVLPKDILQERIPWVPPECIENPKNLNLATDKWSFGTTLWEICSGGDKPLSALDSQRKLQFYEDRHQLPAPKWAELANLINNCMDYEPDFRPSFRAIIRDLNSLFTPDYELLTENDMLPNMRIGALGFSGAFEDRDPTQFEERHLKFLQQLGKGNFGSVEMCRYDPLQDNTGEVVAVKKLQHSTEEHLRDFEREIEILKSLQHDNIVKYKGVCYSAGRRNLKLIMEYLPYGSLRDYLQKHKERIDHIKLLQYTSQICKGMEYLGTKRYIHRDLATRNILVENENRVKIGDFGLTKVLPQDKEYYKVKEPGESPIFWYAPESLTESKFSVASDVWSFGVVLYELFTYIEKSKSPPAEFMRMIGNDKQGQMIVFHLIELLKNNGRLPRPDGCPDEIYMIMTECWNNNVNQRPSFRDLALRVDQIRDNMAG
T2 sequence (P23458 whole entry): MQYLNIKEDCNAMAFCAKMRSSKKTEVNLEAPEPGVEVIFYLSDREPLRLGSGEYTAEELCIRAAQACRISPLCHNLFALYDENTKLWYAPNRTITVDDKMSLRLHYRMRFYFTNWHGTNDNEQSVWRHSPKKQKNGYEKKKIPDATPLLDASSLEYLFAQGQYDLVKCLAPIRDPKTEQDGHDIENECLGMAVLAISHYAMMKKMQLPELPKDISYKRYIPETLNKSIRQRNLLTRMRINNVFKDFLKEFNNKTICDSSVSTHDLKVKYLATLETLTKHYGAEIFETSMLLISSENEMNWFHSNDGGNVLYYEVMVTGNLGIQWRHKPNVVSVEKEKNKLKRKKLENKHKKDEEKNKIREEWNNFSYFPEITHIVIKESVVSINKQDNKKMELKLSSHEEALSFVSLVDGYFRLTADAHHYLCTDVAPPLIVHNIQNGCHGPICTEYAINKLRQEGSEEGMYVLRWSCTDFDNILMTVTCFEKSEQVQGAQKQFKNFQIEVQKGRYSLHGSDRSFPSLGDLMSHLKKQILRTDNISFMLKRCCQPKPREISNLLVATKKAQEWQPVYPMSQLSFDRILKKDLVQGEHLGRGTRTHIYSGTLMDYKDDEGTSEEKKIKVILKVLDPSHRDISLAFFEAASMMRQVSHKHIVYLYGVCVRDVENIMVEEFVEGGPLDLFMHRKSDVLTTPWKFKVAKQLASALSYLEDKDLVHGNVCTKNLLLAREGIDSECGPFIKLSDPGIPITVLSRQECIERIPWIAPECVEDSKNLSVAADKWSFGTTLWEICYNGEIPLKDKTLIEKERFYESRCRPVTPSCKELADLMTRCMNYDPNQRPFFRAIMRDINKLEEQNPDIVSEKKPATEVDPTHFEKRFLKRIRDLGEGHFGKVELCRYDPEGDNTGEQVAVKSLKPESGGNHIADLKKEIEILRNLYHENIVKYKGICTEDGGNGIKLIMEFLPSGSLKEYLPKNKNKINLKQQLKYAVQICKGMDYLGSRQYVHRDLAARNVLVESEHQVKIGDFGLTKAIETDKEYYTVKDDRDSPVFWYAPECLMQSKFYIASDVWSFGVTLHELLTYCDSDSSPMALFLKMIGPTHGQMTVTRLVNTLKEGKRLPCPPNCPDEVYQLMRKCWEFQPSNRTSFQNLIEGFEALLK

SMILES | Tyk 2 (pKi) [1] | JAK 1 (pKi) [2] | JAK 3 (pKi) [3] | JAK3 (pKi)-JAK1 (pKi) [3, 6] | Tall-1 (pIC50) [4, 7] | JAK 2 (pKi) [5] | Ki [1] | Ki [2] | Ki [3] | IC50 [4, 8] | Ki [5] | JAK3 (pKi)-JAK1 (pKi) [3, 9] | IC50 [4, 10] | Tall-1 (pIC50) [4, 11]
C=CC(=O)N1C2CCC1CC(Nc1cc(-c3ccc(O)cc3)cc3[nH]ncc13)C2 (stereo not drawn) [Compound 10-7] | E (a pKi value of 7 or below (Ki of 100 nM or above)) | E (a pKi value of 7 or below (Ki of 100 nM or above)) | B (a pKi value between 9 and 10 (Ki between 1 nM and 0.1 nM)) | A (a value of 3 or above) | B (a pIC50 value between 6.7 (included) and 7.5 (IC50 between 200 nM and 32 nM)) | D (a pKi value between 7 and 8 (Ki between 100 nM and 10 nM)) | – | – | – | – | – | – | – | –
C[C@@H]1C[C@H](Oc2cc(-c3ccc(O)cc3)cc3[nH]ncc23)CCN1C(=O)/C=C/CN(C)C [Compound 12-28] | – | – | – | A (a value of 3 or above) | – | – | > 100 nM | > 100 nM | < 0.1 nM | 31.6 to 200 nM | 1 to 10 nM | – | – | –
C=CC(=O)N1CC(F)(COc2cc(-c3ccc(O)cc3)nc3[nH]ncc23)C1 [Compound 3-46] | – | – | – | – | – | – | > 100 nM | > 100 nM | < 0.1 nM | – | > 100 nM | A (a value of 3 or above) | < 31.6 nM | –
CN(C)C/C=C/C(=O)N1CC(F)(COc2cc(-c3ccc(O)c(Cl)c3)nc3[nH]ncc23)C1 [Compound 3-52] | E (a pKi value of 7 or below (Ki of 100 nM or above)) | E (a pKi value of 7 or below (Ki of 100 nM or above)) | B (a pKi value between 9 and 10 (Ki between 1 nM and 0.1 nM)) | – | – | E (a pKi value of 7 or below (Ki of 100 nM or above)) | – | – | – | – | – | A (a value of 3 or above) | – | B (a pIC50 value between 6.7 (included) and 7.5 (IC50 between 200 nM and 32 nM))
CN(C)C/C=C/C(=O)N1CC(C)(Oc2cc(-c3ccc(O)c(F)c3)cc3[nH]ncc23)C1 [Compound 5-19] | E (a pKi value of 7 or below (Ki of 100 nM or above)) | E (a pKi value of 7 or below (Ki of 100 nM or above)) | B (a pKi value between 9 and 10 (Ki between 1 nM and 0.1 nM)) | A (a value of 3 or above) | B (a pIC50 value between 6.7 (included) and 7.5 (IC50 between 200 nM and 32 nM)) | E (a pKi value of 7 or below (Ki of 100 nM or above)) | – | – | – | – | – | – | – | –
CCC1(COc2cc(-c3ccc(O)c(F)c3)cc3[nH]ncc23)CN(C(=O)/C=C/CN(C)C)C1 [Compound 3-17] | E (a pKi value of 7 or below (Ki of 100 nM or above)) | E (a pKi value of 7 or below (Ki of 100 nM or above)) | A (a pKi value≥10 (Ki≤0.1 nM)) | – | – | D (a pKi value between 7 and 8 (Ki between 100 nM and 10 nM)) | – | – | – | – | – | A (a value of 3 or above) | – | A (a pIC50 value≥7.5 (IC50≤32 nM))
CN(C)C/C=C/C(=O)N1CC(Oc2cc(-c3ccc(O)c(F)c3)cc3[nH]ncc23)(C(F)F)C1 [Compound 5-17] | E (a pKi value of 7 or below (Ki of 100 nM or above)) | E (a pKi value of 7 or below (Ki of 100 nM or above)) | B (a pKi value between 9 and 10 (Ki between 1 nM and 0.1 nM)) | – | – | E (a pKi value of 7 or below (Ki of 100 nM or above)) | – | – | – | – | – | A (a value of 3 or above) | – | A (a pIC50 value≥7.5 (IC50≤32 nM))
CN(C)C/C=C/C(=O)N1CC(F)(COc2cc(-c3ccc(O)c(F)c3)nc3[nH]ncc23)C1 [Compound 3-53] | – | – | – | – | – | – | > 100 nM | > 100 nM | 0.1 to 1 nM | – | > 100 nM | A (a value of 3 or above) | 31.6 to 200 nM | –
C=CC(=O)N1CC(OCc2cc(-c3ccc(O)cc3)cc3[nH]ncc23)C1 [Compound 12-39] | – | – | – | A (a value of 3 or above) | – | – | > 100 nM | > 100 nM | 0.1 to 1 nM | < 31.6 nM | > 100 nM | – | – | –
C=CC(=O)N1CC[C@H](Oc2nc(-c3ccc(O)c(F)c3)cc3[nH]nc(C)c23)C1 [Compound 1-36] | – | – | – | – | – | – | > 100 nM | 10 to 100 nM | 0.1 to 1 nM | – | 10 to 100 nM | B (a value of 2.3 to 3) | < 31.6 nM | –
C=CC(=O)N1CCC(Oc2nc(-c3ccc(O)cc3)cc3[nH]ncc23)CC1 [Compound 6-15] | – | – | – | A (a value of 3 or above) | – | – | > 100 nM | > 100 nM | 0.1 to 1 nM | 31.6 to 200 nM | 10 to 100 nM | – | – | –
C=CC(=O)N1CC(COc2nc(-c3ccc(O)cc3)nc3[nH]ncc23)C1C (stereo not drawn) [Compound 3-31] | E (a pKi value of 7 or below (Ki of 100 nM or above)) | E (a pKi value of 7 or below (Ki of 100 nM or above)) | A (a pKi value≥10 (Ki≤0.1 nM)) | – | – | E (a pKi value of 7 or below (Ki of 100 nM or above)) | – | – | – | – | – | A (a value of 3 or above) | – | B (a pIC50 value between 6.7 (included) and 7.5 (IC50 between 200 nM and 32 nM))
C=CC(=O)N1CCC(C)(Nc2nc(-c3ccc(O)c(Cl)c3)cc3[nH]ncc23)CC1 [Compound 7-14] | E (a pKi value of 7 or below (Ki of 100 nM or above)) | E (a pKi value of 7 or below (Ki of 100 nM or above)) | B (a pKi value between 9 and 10 (Ki between 1 nM and 0.1 nM)) | B (a value of 2.3 to 3) | A (a pIC50 value≥7.5 (IC50≤32 nM)) | D (a pKi value between 7 and 8 (Ki between 100 nM and 10 nM)) | – | – | – | – | – | – | – | –
C=CC(=O)N1C2CCC1CC(Nc1cc(-c3ccc(O)cc3)cc3[nH]ncc13)C2 (stereo not drawn) [Compound 9-9] | D (a pKi value between 7 and 8 (Ki between 100 nM and 10 nM)) | D (a pKi value between 7 and 8 (Ki between 100 nM and 10 nM)) | A (a pKi value≥10 (Ki≤0.1 nM)) | B (a value of 2.3 to 3) | A (a pIC50 value≥7.5 (IC50≤32 nM)) | C (a pKi value between 8 and 9 (Ki between 10 nM and 1 nM)) | – | – | – | – | – | – | – | –
